According to patent US20260242352A1, “INHIBITION OF SHIP1 AS A THERAPEUTIC STRATEGY FOR THE TREATMENT OF ALZHEIMER'S DISEASE” (The Trustees of Indiana University, priority 2022, published 2026):

How the values were obtained:
[1] = test system: BV2 cells; assay: pHrodo-myelin phagocytosis/cell health assay, BV2 cells; assay type: cell-based; conditions: Mus musculus, BV-2, compound 48 hrs, 60 μM to 3 nM, (n) in cell
Experimental: (§1) pHrodo-myelin phagocytosis/cell health assay with microglial cells. This 384-well plate high content imaging assay was developed to quantify phagocytosis and cell health simultaneously using either BV2 or HMC3 immortalized microglial cell lines or primary microglia isolated from mouse brain. Cells were cultured in DMEM GlutaMax media (ThermoFisher) containing 10% FBS and Pen-Strep in 37° C. 5% CO2 incubator.
(§2) Day 1: Cells were plated (Corning Falcon 384 well Optilux Black and clear bottom plates for imaging) with BV2 at 400 cells/45 μl/well, HMC3 at 600 cells/45 μl/well, or primary at 2000 cell/45 μl/well.
(§3) Day 2: Cells were treated with 10× serially diluted compounds in a dose range of 60 μM to 3 nM for 48 hrs at 37° C.
(§4) Day 3: Cells were seeded with pHrodo-myelin (for total 20 hrs) 24 hrs after starting compound treatment. The pHrodo-myelin stocks were at 1 mg/ml (protein equivalent) stored in −20° C. or −80° C. freezer. Stocks were thawed and diluted with culture media into 10× seeding solution (50 μg/ml) and added 5 μl/well to 384 well cell plate.
(§5) Day 4: Cell staining and imaging. Nuclear staining solution was prepared by adding 1 μl of 10 mg/mL Hoechst-33342 to every 1 ml culture media that will be added to cell plate at 20 μl/well. The final concentration of Hoechst-33342 to cells was about 2.5 μg/ml. Cell plates were incubated for >30 min at 37° C. before imaging. Cell plates were scanned with an ArrayScan automatic high content imaging system using a 10× objective lens, 4 fields/well collected. Three measurements were obtained 1) mean total phagocytosis spot intensity per cell, 2) total cell counts per well, and 3) mean average nuclear intensity per cell for cell health.
(§6) This 384-well plate high content imaging assay was developed to quantify phagocytosis and cell health simultaneously using either BV2 or HMC3 immortalized microglial cell lines or primary microglia isolated from mouse brain. Cells were cultured in DMEM GlutaMax media (ThermoFisher) containing 10% FBS and Pen-Strep in 37° C. 5% CO2 incubator. Day 1: Cells were plated (Corning Falcon 384 well Optilux Black and clear bottom plates for imaging) with BV2 at 400 cells/45 μl/well, HMC3 at 600 cells/45 μl/well, or primary at 2000 cell/45 μl/well. Day 2: Cells were treated with 10× serially diluted compounds in a dose range of 60 μM to 3 nM for 48 hrs at 37° C. Day 3: Cells were seeded with pHrodo-myelin (for total 20 hrs) 24 hrs after starting compound treatment. The pHrodo-myelin stocks were at 1 mg/ml (protein equivalent) stored in −20° C. or −80° C. freezer. Stocks were thawed and diluted with culture media into 10× seeding solution (50 μg/ml) and added 5 μl/well to 384 well cell plate. Day 4: Cell staining and imaging. Nuclear staining solution was prepared by adding 1 μl of 10 mg/mL Hoechst-33342 to every 1 ml culture media that will be added to cell plate at 20 μl/well. The final concentration of Hoechst-33342 to cells was about 2.5 μg/ml. Cell plates were incubated for >30 min at 37° C. before imaging. Cell plates were scanned with an ArrayScan automatic high content imaging system using a 10× objective lens, 4 fields/well collected. Three measurements were obtained 1) mean total phagocytosis spot intensity per cell, 2) total cell counts per well, and 3) mean average nuclear intensity per cell for cell health.

[2] = test system: HMC3 cells; assay: pHrodo-myelin phagocytosis/cell health assay, HMC3 cells; assay type: cell-based; conditions: Homo sapiens, compound 48 hrs, 60 μM to 3 nM, (n) in cell
Experimental: as §1, §2, §3, §4, §5, §6

[3] = biological target: T1, SHIP1 (Homo sapiens, UniProt Q92835); assay: Malachite green enzyme assay; assay type: biochemical; conditions: Table 1; PI(3,4,5)P3-diC8 52 μM, enzyme 10 nM, SHIP1 Ptase-C2, 25° C., pH7.4; geometric mean; read-out: SHIP1 IC50 μM (n)
T1 sequence (Q92835 396-858): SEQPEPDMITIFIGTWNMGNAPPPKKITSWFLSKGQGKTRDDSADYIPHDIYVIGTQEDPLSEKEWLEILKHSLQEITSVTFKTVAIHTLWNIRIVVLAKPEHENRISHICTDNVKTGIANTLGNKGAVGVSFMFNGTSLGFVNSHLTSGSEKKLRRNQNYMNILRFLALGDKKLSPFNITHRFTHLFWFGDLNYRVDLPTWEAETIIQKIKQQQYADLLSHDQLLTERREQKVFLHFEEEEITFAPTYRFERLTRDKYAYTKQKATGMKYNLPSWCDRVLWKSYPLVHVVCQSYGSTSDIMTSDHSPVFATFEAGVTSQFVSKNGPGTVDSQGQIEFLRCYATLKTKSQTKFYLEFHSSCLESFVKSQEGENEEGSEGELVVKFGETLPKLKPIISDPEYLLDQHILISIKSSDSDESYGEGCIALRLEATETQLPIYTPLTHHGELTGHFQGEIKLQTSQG
Excerpt: The inventors have performed a screen of 50K compounds at the SHIP1 phosphatase, analyzed a publicly available fragment-based screen, and evaluated inhibitors reported in the literature. They utilized the malachite green assay with PtdIns(3,4,5)P3-diC8 and SHIP1 Ptase-C2 to measure inhibitory potency. A Cellular Thermal Shift Assay was used to confirm target engagement in cells. A phosphoAKT assay was used to provide additional evidence of on-target activity. A high-content imaging assay measuring phagocytosis, cell number, and nuclear intensity was implemented using the BV2 and HMC3 cell lines to characterize cellular pharmacology and cytotoxicity. […] Inhibitors predicted to have drug-like properties were subjected to assays measuring solubility, cellular permeability, and mouse microsomal stability. A physiological based pharmacokinetic model was compared to measured exposure in vivo for select compounds upon oral administration in mice.
Malachite Green Enzyme Assay. […] Compounds diluted in DMSO were added to 384-well plates. Enzyme solution was added. After a 20 min incubation period, the reaction was initiated by addition of PI(3,4,5)P3-diC8. Final compound concentrations ranged from 50 nM to 950 μM. Final reaction concentrations for the PI(3,4,5)P3-diC8 substrate and the enzyme were 52 μM and 10 nM respectively. The reaction was quenched after 10 min by adding Malachite BioMol Green (Enzo Lifesciences, PA, USA). Plates were then incubated for 30 min at room temperature. Absorbance (620 nm) was measured using a SpectraMax Me5 Microplate Reader (Molecular Devices, LLC, USA). IC50 values were calculated by fitting absorbance versus inhibitor concentration.
Compounds diluted in DMSO were added to 384-well plates. Enzyme solution was added. After a 20 min incubation period, the reaction was initiated by addition of PI(3,4,5)P3-diC8. Final compound concentrations ranged from 50 nM to 950 μM. Final reaction concentrations for the PI(3,4,5)P3-diC8 substrate and the enzyme were 52 μM and 10 nM respectively. The reaction was quenched after 10 min by adding Malachite BioMol Green (Enzo Lifesciences, PA, USA). Plates were then incubated for 30 min at room temperature. Absorbance (620 nm) was measured using a SpectraMax Me5 Microplate Reader (Molecular Devices, LLC, USA). IC50 values were calculated by fitting absorbance versus inhibitor concentration and are reported as the geometric mean and standard error of mean with the number of repeats (n) indicated. Compounds and activities are as depicted in tables 1 and 2 above.

Row | EC50 [1] [nM] | EC50 [2] [nM] | IC50 [3] [µM] | SMILES
1 | 1170 | 2070 | 102 | CC(C)(C)CC(=O)N1CCC(n2cc(-c3cncc(OCc4ccccc4Cl)c3)cn2)CC1 [Compound 16, 1-(4-(4-(5-((2-chlorobenzyl)oxy)pyridin-3-yl)-1H-pyrazol-1-yl)piperidin-1-yl)-3,3-dimethylbutan-1-one]
2 | 395 | 722 | – | C[C@H](Oc1cncc(-c2cnn(C3CCNCC3)c2)c1)c1ccccc1Cl [Compound 21, (S)-3-(1-(2-chlorophenyl)ethoxy)-5-(1-(piperidin-4-yl)-1H-pyrazol-4-yl)pyridine]
3 | – | – | 152 | C[C@@H](Oc1cncc(-c2cnn(C3CCNCC3)c2)c1)c1ccccc1Cl [Compound 22, (R)-3-(1-(2-chlorophenyl)ethoxy)-5-(1-(piperidin-4-yl)-1H-pyrazol-4-yl)pyridine]
4 | 2600 | 145 | – | C[C@@H](Oc1cncc(-c2cnn(C3CCNCC3)c2)c1)c1ccc(Cl)cc1 [Compound 23, (R)-3-(1-(4-chlorophenyl)ethoxy)-5-(1-(piperidin-4-yl)-1H-pyrazol-4-yl)pyridine]
5 | – | 1350 | 851 | Cc1ccccc1COc1cncc(-c2cnn(C3CCNCC3)c2)c1 [Compound 25, 3-[(2-Methylphenyl)methoxy]-5-[1-(piperidin-4-yl)-1H-pyrazol-4-yl]pyridine]
6 | – | – | 690 | Clc1ccccc1COc1cncc(-c2ccn(C3CCNCC3)n2)c1 [Compound 26, 3-((2-chlorobenzyl)oxy)-5-(1-(piperidin-4-yl)-1H-pyrazol-3-yl)pyridine]
7 | – | – | 332 | Clc1ccccc1COc1cncc(-n2ccc(C3CCNCC3)n2)c1 [Compound 27, 3-((2-chlorobenzyl)oxy)-5-(3-(piperidin-4-yl)-1H-pyrazol-1-yl)pyridine]
8 | – | – | 601 | Clc1ccccc1COc1cncc(-n2cc(C3CCNCC3)cn2)c1 [Compound 28, 3-((2-chlorobenzyl)oxy)-5-(4-(piperidin-4-yl)-1H-pyrazol-1-yl)pyridine]
9 | – | – | 186 | Clc1ccccc1COc1cccc(-c2cnn(C3CCNCC3)c2)c1 [Compound 29, 4-(4-(3-((2-chlorobenzyl)oxy)phenyl)-1H-pyrazol-1-yl)piperidine]

Continued, compound first:

Row | SMILES | EC50 [1] [nM] | EC50 [2] [nM] | IC50 [3] [µM]
10 | CC(C)(C)OC(=O)N1CCC(n2cc(-c3cncc(OCc4ccccc4Cl)c3)cn2)CC1 [Compound 1, tert-butyl 4-(4-{5-[(2-chlorophenyl)methoxy]pyridin-3-yl}-1H-pyrazol-1-yl)piperidine-1-carboxylate] | 2330 | 15900 | –
11 | CC(C)(C)OC(=O)N1CCC(n2cc(-c3cncc(OCc4ccccc4F)c3)cn2)CC1 [Compound 2, tert-butyl 4-(4-(5-((2-fluorobenzyl)oxy)pyridin-3-yl)-1H-pyrazol-1-yl)piperidine-1-carboxylate] | 1560 | 1440 | 81.9
12 | Cc1ccccc1COc1cncc(-c2cnn(C3CCN(C(=O)OC(C)(C)C)CC3)c2)c1 [Compound 3, tert-butyl 4-(4-(5-((2-methylbenzyl)oxy)pyridin-3-yl)-1H-pyrazol-1-yl)piperidine-1-carboxylate] | 1030 | 4190 | 116
13 | CC(C)(C)OC(=O)N1CCC(n2cc(-c3cncc(OCc4ccccc4)c3)cn2)CC1 [Compound 4, tert-butyl 4-(4-(5-(benzyloxy)pyridin-3-yl)-1H-pyrazol-1-yl)piperidine-1-carboxylate] | 3230 | 2010 | 90.3
14 | CC(C)(C)OC(=O)N1CCC(n2cc(-c3cncc(OCc4c(Cl)cccc4Cl)c3)cn2)CC1 [Compound 5, tert-butyl 4-(4-(5-((2,6-dichlorobenzyl)oxy)pyridin-3-yl)-1H-pyrazol-1-yl)piperidine-1-carboxylate] | – | 3720 | 35.7
15 | CC(C)(C)OC(=O)N1CCC(n2cc(-c3cncc(OCc4ccc(Br)cc4)c3)cn2)CC1 [Compound 7, tert-butyl 4-(4-(5-((4-bromobenzyl)oxy)pyridin-3-yl)-1H-pyrazol-1-yl)piperidine-1-carboxylate] | 756 | 2430 | 57
16 | Cl.Clc1ccccc1COc1cncc(-c2cnn(C3CCNCC3)c2)c1 [Compound 9, 3-((2-chlorobenzyl)oxy)-5-(1-(piperidin-4-yl)-1H-pyrazol-4-yl)pyridine hydrochloride] | 741 | 584 | 302
17 | Cl.Clc1ccc(COc2cncc(-c3cnn(C4CCNCC4)c3)c2)c(Cl)c1 [Compound 10, 3-((2,4-dichlorobenzyl)oxy)-5-(1-(piperidin-4-yl)-1H-pyrazol-4-yl)pyridine hydrochloride] | 1750 | 308 | 286
18 | CC(C)(C)CCN1CCC(n2cc(-c3cncc(OCc4ccccc4Cl)c3)cn2)CC1 [Compound 15, 3-((2-chlorobenzyl)oxy)-5-(1-(1-(3,3-dimethylbutyl)piperidin-4-yl)-1H-pyrazol-4-yl)pyridine] | 2260 | 2100 | –
